Laboratory results: patent US5495032A, “Process for producing 7-(substituted)-8-(substituted-9-[(substituted glycyl)amido]-6-demethyl-6-deoxytetracyclines” (priority 1994, dated 1996)
Where a name gives a salt, the structure may show the parent alone. Read-outs that look alike come from different tables or passages of the source.

Assays:
Format in all cases: cell-based
E. coli UBMS 90-5 sens = assay: MIC, agar dilution method; conditions: Escherichia coli, UBMS905SENS, 18 hours at 35° C., read-out: MIC
E. coli J3272 Tet D = assay: microbe, parasite or virus in culture; conditions: Escherichia coli, J3272TETD, 18 h
E. coli #311 (MP) = assay: MIC, agar dilution method; conditions: Escherichia coli, 18 hours at 35° C., read-out: MIC
[1] = tested on: S. hemolyticus AVHAH 88-3; assay: MIC, agar dilution method; conditions: Streptococcus pyogenes, AVHAH883, 18 h, 18 hours at 35° C.
S. aureus UBMS 88-4 = assay: MIC, agar dilution method; conditions: Staphylococcus aureus, UBMS884, 18 hours at 35° C., read-out: MIC
[2] = tested on: E. coli MC 4100 Tet sens.; assay: MIC, agar dilution method; conditions: Escherichia coli, 18 hours at 35° C., read-out: MIC
[3] = tested on: S. aureus UBMS 88-7 Tet K; assay: microbe, parasite or virus in culture; conditions: 18 hours at 35° C.
S. aureus NEMC 8769 = assay: MIC, agar dilution method; conditions: Staphylococcus aureus, NEMC8769, 18 h
S. aureus ROSE (MP) = assay: MIC, agar dilution method; conditions: 18 hours at 35° C.
S. aureus IVES 2943 = assay: MIC, agar dilution method; conditions: Staphylococcus aureus, IVES2943, 18 h
S. aureus SMITH (MP) = assay: MIC, agar dilution method; conditions: 18 hours at 35° C.
Enterococcus 12201 = assay: MIC, agar dilution method; conditions: 18 hours at 35° C.
S. aureus IVES 1 983 = assay: MIC, agar dilution method; conditions: Staphylococcus aureus, IVES1983, 18 h
E. coli UBMS 89-1 Tet M = assay: microbe, parasite or virus in culture; conditions: Escherichia coli, UBMS891TETM, 18 h, 18 hours at 35° C.
E. faecalis ATCC 29212 = assay: MIC, agar dilution method; conditions: Enterococcus faecalis
E. coli BAJ9003 IMP MUT = assay: microbe, parasite or virus in culture; conditions: 18 hours at 35° C.
E. coli J2175 = assay: MIC, agar dilution method; conditions: Escherichia coli, 18 hours at 35° C., read-out: MIC
[4] = tested on: E. coli MC 4100 TNIOC Tet B; assay: microbe, parasite or virus in culture; conditions: Escherichia coli, 18 h, 18 hours at 35° C.
[5] = tested on: E. coli UBMS 89-2 Tet sens; assay: MIC, agar dilution method; conditions: Escherichia coli, UBMS892TETSENS, 18 h, 18 hours at 35° C., read-out: MIC
[6] = tested on: Ps. acruginosa ATCC 27853; assay: MIC, agar dilution method; conditions: Ps. acruginosa ATCC 27853; 18 hours at 35° C.; read-out: MIC
S. aureus UBMS 90-3 = assay: MIC, agar dilution method; conditions: Staphylococcus aureus
E. coli UBMS 88-1 Tet B = assay: microbe, parasite or virus in culture; conditions: Escherichia coli, UBMS881TETB, 18 h, 18 hours at 35° C.
E. coli UBMS 90-4 Tet M = assay: microbe, parasite or virus in culture; conditions: Escherichia coli, UBMS904TETM, 18 h, 18 hours at 35° C.
[7] = tested on: S. aureus UBMS 88-5 Tet M; assay: microbe, parasite or virus in culture; conditions: Staphylococcus aureus, UBMS885TETM, 18 h
[8] = tested on: S. aureus UBMS 90-1 Tet M; assay: microbe, parasite or virus in culture; conditions: 18 hours at 35° C.
[9] = tested on: S. aureus UBMS 90-2 Tet M; assay: microbe, parasite or virus in culture; conditions: Staphylococcus aureus, UBMS902TETM, 18 h, 18 hours at 35° C.
E. coli J3272 Tet C = assay: microbe, parasite or virus in culture; conditions: Escherichia coli, J3272TETC, 18 h
E. coli ATCC 25922 = assay: MIC, agar dilution method; conditions: Escherichia coli, ATCC25922, 18 hours at 35° C., read-out: MIC
S. aureus ATCC 29213 = assay: MIC, agar dilution method; conditions: 18 hours at 35° C.
S. mariescens FPOR 8733 = assay: MIC, agar dilution method; conditions: 18 h, 18 hours at 35° C.
E. coli PRP1 Tet A = assay: microbe, parasite or virus in culture; conditions: Escherichia coli, PRP1TETA, 18 h, 18 hours at 35° C.
[10] = tested on: X. maltophilia NEMC 87210; assay: MIC, agar dilution method; conditions: Stenotrophomonas maltophilia, NEMC87210, 18 h, 18 hours at 35° C.
susceptible strains = assay: in vitro antibacterial evaluation, susceptible strains; conditions: vs minocycline
[11] = tested on: tetracycline resistant strains containing the tetM resistance determinant; assay: in vitro antibacterial evaluation, tetM strains; conditions: S. aureus UBMS 88-5, 90-1 and 90-2, E. coli UBMS 89-1 and 90-4
E. coli J3272 Tet sens = assay: MIC, agar dilution method; conditions: Escherichia coli, J3272TETSENS, 18 hours at 35° C.

SMILES | MIC (E. coli UBMS 90-5 sens) | MIC (E. coli J3272 Tet D) | MIC (E. coli #311 (MP)) | MIC [1] | MIC (S. aureus UBMS 88-4) | MIC (S. aureus IVES 2943) | MIC (S. aureus IVES 1 983) | MIC (E. coli UBMS 89-1 Tet M) | MIC (E. coli J2175) | MIC [4] | MIC [5] | MIC [6] | MIC (E. coli UBMS 88-1 Tet B) | MIC (E. coli UBMS 90-4 Tet M) | MIC [7] | MIC [9] | MIC (E. coli J3272 Tet C) | MIC (E. coli ATCC 25922) | MIC (S. mariescens FPOR 8733) | MIC (E. coli PRP1 Tet A) | other results
CCCCCNCC(=O)Nc1c(Cl)cc2c(c1O)C(=O)C1=C(O)[C@]3(O)C(=O)C(C(N)=O)=C(O)[C@@H](N(C)C)C3CC1C2 (stereo partly drawn) [H, [4S-(4α,12aα)]-8-Chloro-4-(dimethylamino)-1,4,4a,5,5a,6,11,12a-octahydro-3, 10,12,12a-tetrahydroxy-1,11-dioxo-9-[[(pentylamino)acetyl]amino]-2-naphthacenecarboxamide dihydrochloride] | 2 µg/mL | 1 µg/mL | 2 µg/mL | 4 µg/mL | 0.5 µg/mL | 8 µg/mL | 4 µg/mL | 0.5 µg/mL | 2 µg/mL | 2 µg/mL | 2 µg/mL | > 32 µg/mL | 2 µg/mL | 2 µg/mL | 1 µg/mL | 0.25 µg/mL | 2 µg/mL | 2 µg/mL | 16 µg/mL | 2 µg/mL | MIC [2]: 0.25 µg/mL; MIC ([3]; Staphylococcus aureus, UBMS887TETK, 18 h): 4 µg/mL; MIC (S. aureus NEMC 8769): 0.5 µg/mL; MIC (S. aureus ROSE (MP); Staphylococcus aureus, 18 h): 8 µg/mL; MIC (S. aureus SMITH (MP); Staphylococcus aureus, read-out: MIC): 0.5 µg/mL; MIC (Enterococcus 12201; Enterococcus, 12201, 18 h): 0.25 µg/mL; MIC (E. faecalis ATCC 29212; ATCC29212, 18 h, 18 hours at 35° C.): 0.12 µg/mL; MIC (E. coli BAJ9003 IMP MUT; Escherichia coli, BAJ9003IMPMUT, 18 h): 0.25 µg/mL; MIC (S. aureus UBMS 90-3; UBMS903, 18 h): 0.25 µg/mL; MIC ([8]; Staphylococcus aureus, UBMS901TETM, 18 h): 2 µg/mL; MIC (S. aureus ATCC 29213; Staphylococcus aureus, ATCC29213, 18 h): 0.5 µg/mL; MIC [10]: 4 µg/mL
CN(C)CC(=O)Nc1c(Cl)cc2c(c1O)C(=O)C1=C(O)[C@]3(O)C(=O)C(C(N)=O)=C(O)[C@@H](N(C)C)C3CC1C2 (stereo partly drawn) [8-chloro-9-(N,N-dimethylglycylamido)-6-demethyl-6-deoxytetracycline] |  |  |  |  |  |  |  |  |  |  |  |  |  |  |  |  |  |  |  |  | effectiveness against susceptible strains compared with minocycline (susceptible strains): equally as effective as minocycline; in vitro activity against tetracycline resistant strains containing the tetM resistance determinant [11]: good in vitro activity
CN(C)CC(=O)Nc1c(Cl)cc2c(c1O)C(=O)C1=C(O)[C@]3(O)C(=O)C(C(N)=O)=C(O)[C@@H](N(C)C)C3CC1C2 (stereo partly drawn) [A, [4S-(4α,12aα)]-8-Chloro-4-(dimethylamino)-9-[[(dimethylamino)acetyl]amino]-1,4,4a,5,5a,6,11,12a-octahydro-3,10,12,12a-tetrahydroxy-1,11-dioxo-2-naphthacenecarboxamide disulfate] | 1 µg/mL | 0.5 µg/mL | 0.5 µg/mL | 1 µg/mL | 0.12 µg/mL | 4 µg/mL | 4 µg/mL | 0.5 µg/mL | 1 µg/mL | 2 µg/mL | 2 µg/mL | > 32 µg/mL | 2 µg/mL | 1 µg/mL | 0.25 µg/mL | 0.5 µg/mL | 8 µg/mL | 0.5 µg/mL | 16 µg/mL | 4 µg/mL | MIC [3]: 2 µg/mL; MIC (S. aureus NEMC 8769; S. aureus NEMC 8769, 18 hours at 35° C.): 0.06 µg/mL; MIC (S. aureus ROSE (MP)): 16 µg/mL; MIC (S. aureus SMITH (MP)): 0.25 µg/mL; MIC (Enterococcus 12201): 0.25 µg/mL; MIC (E. faecalis ATCC 29212; ATCC29212, 18 hours at 35° C., read-out: MIC): 0.12 µg/mL; MIC (E. coli BAJ9003 IMP MUT): 0.25 µg/mL; MIC (S. aureus UBMS 90-3; UBMS903, S. aureus UBMS 90-3, 18 hours at 35° C., read-out: MIC): 0.12 µg/mL; MIC [8]: 0.5 µg/mL; MIC (E. coli J3272 Tet sens): 1 µg/mL; MIC (S. aureus ATCC 29213): 0.03 µg/mL; MIC [10]: 2 µg/mL
